Assay results published in patent publication US4427668A, “26-Hydroxycholesterol and derivatives and analogs thereof in regulation of cholesterol accumulation in body tissue” (New York University, priority 1982, dated 1984).

Key:
HMG-CoA reductase [1] = details: 2.5 μM, 5 hours; Chang et al, J. Biol. Chem. 256:6304 (1981); cited from earlier work
HMG-CoA reductase [2] = test: HMG-CoA reductase activity in Chinese hamster ovary (CHO-K1) cell culture, as mevalonate formed; format: cell-based; details: CHO-K1 cells
Method: The effect of 26-hydroxycholesterol on HMG-CoA reductase activity was determined using the procedures of Chang et al, J. Biol. Chem. 256:6304 (1981). Chinese hamster ovary cells, CHO-Kl cells (also referred to as wild type) were obtained from the American Type Culture Collection and grown in Falcon flasks on Ham's F-12 media containing 10% fetal calf serum. Approximately 21/2 days after cells were removed from the stock flask cultures and seeded into petri dishes (60 mm), each containing 0.03×10^6 cells, they were rinsed with phosphate-buffered saline (PBS) and then grown in F-12 media containing 10% delipidated fetal calf serum for 48 hours with one change of media. Following this, either fresh media (still with delipidated calf serum) or fresh media containing 0.14% DMSO alone or 26-hydroxycholesterol was added and the cells incubated for varying periods of time. Our final concentration of DMSO was less than Chang (0.14% vs. 0.3%) and comparison of HMG-CoA reductase activity at 5 hours with media not containing DMSO gives the same or slightly higher (not significant) values. Under these conditions, over 50% inhibition has been obtained using the 0.25 μM concentration of 26-hydroxycholesterol and incubating for 5 hours. Not only is the mean highly significant but none of the individual control flasks overlap with the individual flasks containing 26-hydroxycholesterol. Using a concentration 10 X greater (2.5 μM) of 25-hydroxycholesterol, Chang reported 80% inhibition at 5 hours. Table 1 below sets forth average results of this experiment when carried out on a single day. […] HMG-CoA reductase activity was determined using the double-label technique of Pitot et al, J. Lipid Res. 12:512 (1971) and the thin-layer separation of Shapiro et al, Anal. Biochem. 31:383 (1969). […] The mevalonlactone is separated by thin-layer chromatography and the ^14 C/^3 H ratio determined from which the total amount of ^14 C can be calculated (corrected for ^3 H recovered) and expressed per mg of cytosolic protein by the Lowry method.

Compound	inhibition of HMG-CoA reductase activity reported by Chang (HMG-CoA reductase [1])	% Inhibition of HMG-CoA reductase activity (HMG-CoA reductase [2]; 0.25 μM in 0.14% DMSO, 5 hours incubation, average of a single day)	HmG Co-A Reductase Activity (as mevalonate formed) (HMG-CoA reductase [2]; 0.25 μM in 0.14% DMSO, 5 hours incubation, DMSO control 0.048)	inhibition of HMG-CoA reductase activity (HMG-CoA reductase [2]; 0.25 μM, incubating for 5 hours)
C[C@H](CCCC(C)(C)O)[C@H]1CC[C@H]2[C@@H]3CC=C4C[C@@H](O)CC[C@]4(C)[C@H]3CC[C@]12C [25-hydroxycholesterol]	80%			
C[C@@H](CO)CCC[C@@H](C)[C@H]1CC[C@H]2[C@@H]3CC=C4C[C@@H](O)CC[C@]4(C)[C@H]3CC[C@]12C [26-hydroxycholesterol]		65%	0.017 nMol/min/mg protein	over 50%
